# Experiments:
# Solubility in solvents = type: physicochemical
# Source text: (h) Solubility in solvents:
# [1] = system: Bacillus subtilis PCI 219; experiment: Antimicrobial spectrum, agar-dilution method; type: cell-based; settings: Bacillus subtilis PCI 219, agar-dilution
# [2] = system: Salmonella typhimurium IFO12529; experiment: Antimicrobial spectrum, agar-dilution method; type: cell-based
# [3] = system: Staphylococcus aureus Smith; experiment: Antimicrobial spectrum, agar-dilution method; type: cell-based
# [4] = system: Staphylococcus aureus MS3937; experiment: Antimicrobial spectrum, agar-dilution method; type: cell-based
# [5] = system: hyperglycemia (hyperinsulinemia) following an oral load of native starch; experiment: Hyperglycemia (hyperinsulinemia) following an oral load of native starch; type: in vivo; settings: 20 min. after wheat starch
# Protocol: (§4) [Plasma Glucose and insulin 20 min. after carbohydrate ± Trestatin (1.
# g wheat starch/kg or 3.2 g sucrose/kg)]
# [6] = system: Pseudomonas aeruginosa A3; experiment: Antimicrobial spectrum, agar-dilution method; type: cell-based
# [7] = system: Proteus vulgaris OX19 ATCC6898; experiment: Antimicrobial spectrum, agar-dilution method; type: cell-based
# [8] = system: Pseudomonas aeruginosa P2; experiment: Antimicrobial spectrum, agar-dilution method; type: cell-based
# [9] = system: Staphylococcus aureus MS9261; experiment: Antimicrobial spectrum, agar-dilution method; type: cell-based
# [10] = molecular target: T1, porcine pancreatic α-amylase (Sus scrofa, UniProt P00690); experiment: Porcine pancreatic α-amylase inhibitory activity (Bernfeld assay); type: biochemical; settings: IU = amount giving 50% inhibition of 2 units porcine pancreatic α-amylase, pH 6.9, 37° C.
# T1 sequence (P00690 16-511): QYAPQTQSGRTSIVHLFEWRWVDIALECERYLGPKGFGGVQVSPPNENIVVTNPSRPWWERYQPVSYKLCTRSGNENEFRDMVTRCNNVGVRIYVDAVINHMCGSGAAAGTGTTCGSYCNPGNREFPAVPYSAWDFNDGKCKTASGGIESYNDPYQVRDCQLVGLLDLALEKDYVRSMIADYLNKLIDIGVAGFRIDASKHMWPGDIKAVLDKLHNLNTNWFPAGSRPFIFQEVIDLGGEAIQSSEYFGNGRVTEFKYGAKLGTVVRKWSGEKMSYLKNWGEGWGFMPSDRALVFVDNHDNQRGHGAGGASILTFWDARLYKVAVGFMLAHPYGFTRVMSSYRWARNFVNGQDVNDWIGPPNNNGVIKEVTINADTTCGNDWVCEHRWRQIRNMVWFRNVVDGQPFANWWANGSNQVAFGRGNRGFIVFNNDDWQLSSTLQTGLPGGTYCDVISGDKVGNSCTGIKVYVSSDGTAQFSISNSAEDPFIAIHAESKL
# Protocol: 2 units* of porcine pancreatic α-amylase in 0.1 ml of 6.4 mM ammonium sulfate solution are added to 0.6 ml of 20 mM phosphate buffer (pH 6.9) containing 10 mM sodium chloride and different amounts of Trestatin. The mixture, after equilibration at 37° C. for 5 min. followed by the addition of 0.5 ml of 4% soluble starch solution, is incubated for 5 min. at 37° C. The reaction is terminated by the addition of 2 ml of dinitrosalicylic acid reagent prepared according to the method of P. Bernfeld. The mixture is heated on a boiling water bath for 5 min. and then diluted with 10 ml of water. Absorbance (A1) of the resulting colored solution is measured at 540 nm, and the inhibition of α-amylase activity can be calculated from the following equation: [formula] A0; absorbance without enzyme A2; absorbance without Trestatin
# *1 unit of the α-amylase is the amount of enzyme which catalyzes under the above conditions without Trestatin the formation of reducing sugars equivalent to 1 μmol of maltose.
# Each of said inhibitory activities was determined by the method mentioned above.
# E. coli NIHJ STf = experiment: Antimicrobial spectrum, agar-dilution method; type: cell-based
# E. coli CF41 = experiment: Antimicrobial spectrum, agar-dilution method; type: cell-based
# E. coli NIHJ = experiment: Antimicrobial spectrum, agar-dilution method; type: cell-based
# Shigella flexneri = experiment: Antimicrobial spectrum, agar-dilution method; type: cell-based
# [11] = system: Bordetella bronchiseptica Aichi 202; experiment: Antimicrobial spectrum, agar-dilution method; type: cell-based; settings: Bordetella bronchiseptica Aichi 202, agar-dilution
# [12] = system: hyperglycemia following an oral load of sucrose; experiment: Hyperglycemia following an oral load of sucrose; type: in vivo; settings: dose/kg 30.0 mg; 20 min. after 3.2 g sucrose/kg
# Protocol: as §4
# g wheat starch/kg or 3.2 g sucrose/kg)]
# [13] = system: Serratia marcescens IFO12648; experiment: Antimicrobial spectrum, agar-dilution method; type: cell-based
# rats = experiment: Acute toxicity, oral, rats; settings: 500 mg/kg administered to rats orally (65-700 times the effective dosage)
# [14] = system: Pseudomonas aeruginosa IFO12689; experiment: Antimicrobial spectrum, agar-dilution method; type: cell-based
# [15] = system: Mycobacterium smegmatis ATCC607; experiment: Antimicrobial spectrum, agar-dilution method; type: cell-based
# [16] = system: hyperglycemia induced by cooked rice starch; experiment: Inhibition of hyperglycemia induced by cooked rice starch, mice; type: in vivo; settings: p.o., dose causing after 20 minutes a 20 percent decrease of hyperglycemia, 2 g/kg cooked rice starch
# Protocol: (§1) **ED20 is defined as the dose causing after 20 minutes a 20 percent
# (§2) decrease of hyperglycemia induced by oral administration of 2 g/kg body
# (§3) weight cooked rice starch.
# Sarcina lutea ATCC 9341 = experiment: Antimicrobial spectrum, agar-dilution method; type: cell-based; settings: Sarcina lutea ATCC 9341, agar-dilution
# Candida albicans Yu1200 = experiment: Antimicrobial spectrum, agar-dilution method; type: cell-based
# E. coli K-12 ML1630 = experiment: Antimicrobial spectrum, agar-dilution method; type: cell-based; settings: E. coli K-12 ML1630, agar-dilution
# Salmonella paratyphi B = settings: agar-dilution
# Titration (in water) = type: physicochemical
# E. coli CF17 = experiment: Antimicrobial spectrum, agar-dilution method; type: cell-based
# Proteus rettgeri = experiment: Antimicrobial spectrum, agar-dilution method; type: cell-based
# E. coli NIHJ SMf = experiment: Antimicrobial spectrum, agar-dilution method; type: cell-based
# [17] = system: Staphylococcus aureus FDA209P; experiment: Antimicrobial spectrum, agar-dilution method; type: cell-based
# [18] = system: hyperglycemia induced by cooked rice starch; experiment: Inhibition of hyperglycemia induced by cooked rice starch, rats; type: in vivo; settings: p.o., dose causing after 20 minutes a 20 percent decrease of hyperglycemia, 2 g/kg cooked rice starch
# Protocol: as §1, §2, §3
# Citrobacter = experiment: Antimicrobial spectrum, agar-dilution method; type: cell-based
# [19] = system: Klebsiella pneumoniae PCI602; experiment: Antimicrobial spectrum, agar-dilution method; type: cell-based
structure (smiles),measurement,setting,value
C[C@H]1O[C@H](O[C@@H]2[C@H](O)[C@H](O)[C@@H](O[C@@H]3[C@H](O)[C@@H](O)[C@@H](O[C@@H]4[C@H](O)[C@H](O)[C@@H](O[C@H]5O[C@@H](CO)[C@H](O)[C@H](O)[C@H]5O)O[C@@H]4CO)O[C@@H]3CO)O[C@H]2CO)[C@H](O)[C@@H](O)[C@@H]1N[C@H]1C=C(CO)[C@@H](O[C@H]2O[C@H](CO)[C@H](O[C@H]3O[C@H](C)[C@@H](N[C@H]4C=C(CO)[C@@H](O)[C@H](O)[C@H]4O)[C@H](O)[C@H]3O)[C@H](O)[C@H]2O)[C@H](O)[C@H]1O (stereo in doubt) [Trestatin A],Solubility in acetone,Solubility in solvents; acetone,slightly soluble
same,Solubility in chloroform,Solubility in solvents; chloroform,insoluble
same,Solubility in dimethylsulfoxide,Solubility in solvents; dimethylsulfoxide,soluble
same,Solubility in ethanol,Solubility in solvents; ethanol,slightly soluble
same,Solubility in ethyl acetate,Solubility in solvents; ethyl acetate,insoluble
same,Solubility in water,Solubility in solvents; water,easily soluble
same,Antimicrobial spectrum,[1],> 100 µg/mL
same,Antimicrobial spectrum,[2],> 100 µg/mL
same,Antimicrobial spectrum,[3],> 100 µg/mL
same,Antimicrobial spectrum,[4],> 100 µg/mL
same,"Plasma glucose, starch - load",[5]; dose/kg 0.3 mg,68% of carbohydrate primed controls
same,"Plasma insulin, starch - load",[5]; dose/kg 0.3 mg,66% of carbohydrate primed controls
same,"Plasma glucose, starch - load",[5]; dose/kg 1.0 mg,56% of carbohydrate primed controls
same,"Plasma insulin, starch - load",[5]; dose/kg 1.0 mg,42% of carbohydrate primed controls
same,"Plasma glucose, starch - load",[5]; dose/kg 3.0 mg,55% of carbohydrate primed controls
same,"Plasma insulin, starch - load",[5]; dose/kg 3.0 mg,42% of carbohydrate primed controls
same,Antimicrobial spectrum,[6],> 100 µg/mL
same,Antimicrobial spectrum,[7],> 100 µg/mL
same,Antimicrobial spectrum,[8],> 100 µg/mL
same,Antimicrobial spectrum,[9],> 100 µg/mL
same,Inhibitory activities,[10],7.1 × 10^7 IU/g
same,Antimicrobial spectrum,E. coli NIHJ STf,> 100 µg/mL
same,Antimicrobial spectrum,E. coli CF41,> 100 µg/mL
same,Antimicrobial spectrum,E. coli NIHJ,> 100 µg/mL
same,Antimicrobial spectrum,Shigella flexneri,> 100 µg/mL
same,Antimicrobial spectrum,[11],> 100 µg/mL
same,"Plasma glucose, sucrose - load",[12],84% of carbohydrate primed controls
same,Antimicrobial spectrum,[13],> 100 µg/mL
same,Acute toxicity,rats,not observed
same,Antimicrobial spectrum,[14],> 100 µg/mL
same,Antimicrobial spectrum,[15],> 100 µg/mL
same,"ED20, inhibition of hyperglycemia induced by cooked rice starch",[16],1.1 mg/kg
same,Antimicrobial spectrum,Sarcina lutea ATCC 9341,> 100 µg/mL
same,Antimicrobial spectrum,Candida albicans Yu1200,> 100 µg/mL
same,Antimicrobial spectrum,E. coli K-12 ML1630,> 100 µg/mL
same,Antimicrobial spectrum,Salmonella paratyphi B,> 100 µg/mL
same,pKa',Titration (in water),5.0
same,Antimicrobial spectrum,E. coli CF17,> 100 µg/mL
same,Antimicrobial spectrum,Proteus rettgeri,> 100 µg/mL
same,Antimicrobial spectrum,E. coli NIHJ SMf,> 100 µg/mL
same,Antimicrobial spectrum,[17],> 100 µg/mL
same,"ED20, inhibition of hyperglycemia induced by cooked rice starch",[18],1.0 mg/kg
same,Antimicrobial spectrum,Citrobacter,> 100 µg/mL
same,Antimicrobial spectrum,[19],> 100 µg/mL

# — patent US4273765A, “Amino sugar derivatives containing trehalose” (Hoffmann-La Roche Inc., priority 1978, dated 1981)
